Laboratory results taken from ChEMBL document CHEMBL1137656, “Effects of serum on in vitro susceptibility testing of echinocandins” (Antimicrob Agents Chemother, 2007).
Numbered stars: 1 amine (or outer) side, 2 acyl side, 3 side chain; on linkers, the order of the positions; unused ones are H or OH. Bridge positions count the residues as written; N and C are the ends. Square brackets hold non-standard residues; d marks the D form. Peptide text beside a SMILES is read from it. * marks the point of attachment. hTyr(3S-OH,4S-OH,3'-OSO3H) = N[C@H](C(=O)O)[C@H](O)[C@@H](O)c1ccc(O)c(OS(=O)(=O)O)c1; pTerphenylCO(4''-OnC5H11) = CCCCCOc1ccc(-c2ccc(-c3ccc(C(=O)*)cc3)cc2)cc1; Orn(4R-OH,5R-OH) = O=C([C@H](C[C@@H](O)[C@@H](O)N[*:3])N[*:1])[*:2]; hTyr(3S-OH,4S-OH) = N[C@H](C(=O)O)[C@H](O)[C@@H](O)c1ccc(O)cc1; Pro(3S-OH,4S-Me) = C[C@H]1CN[C@H](C(=O)O)[C@H]1O; X1 = CCCCCOc1ccc(-c2cc(-c3ccc(C(=O)*)cc3)no2)cc1; Gln(3R-OH) = NC(=O)C[C@@H](O)[C@H](N)C(=O)O; Hyp = O=C(O)[C@@H]1C[C@@H](O)CN1

What was measured:
Candida albicans [1] = assay: Ratio of MIC50 for Candida albicans isolate 0012-025 in presence of 50% human serum to MIC50 for Candida albicans isolate 0012-025 in presence of RPMI 1640 medium; format: functional
Pichia kudriavzevii = assay: Antifungal activity against Candida krusei ATCC 6258 after 24 hrs by CLSI M27-A2 broth microdilution method in presence of RPMI 1640 medium; format: functional; conditions: ATCC 6258, 24 h
Aspergillus fumigatus = assay: Ratio of MIC50 for Aspergillus fumigatus isolate 0002-021 in presence of 50% human serum to MIC50 for Aspergillus fumigatus isolate 0002-021 in presence of RPMI 1640 medium; format: functional
Nakaseomyces glabratus = assay: Antifungal activity against Candida glabrata isolate 0022-012 after 24 hrs by CLSI M27-A2 broth microdilution method in presence of RPMI 1640 medium; format: functional; conditions: isolate 0022-012, 24 h
Candida tropicalis = assay: Antifungal activity against Candida tropicalis isolate 0050-028 after 24 hrs by CLSI M27-A2 broth microdilution method in presence of RPMI 1640 medium; format: functional; conditions: isolate 0050-028, 24 h
Aspergillus flavus = assay: Antifungal activity against Aspergillus flavus isolate 0001-033 after 24 hrs by CLSI M38-A broth microdilution method in presence of RPMI 1640 medium; format: functional; conditions: isolate 0001-033, 24 h
Candida albicans [2] = assay: Ratio of MIC50 for Candida albicans isolate 0021-076 in presence of 50% human serum to MIC50 for Candida albicans isolate 0021-076 in presence of RPMI 1640 medium; format: functional
[3] = Protein binding in mouse serum at 1 to 1000 ug/mL by scintillation counting; format: ADME, cell-free; conditions: read-out: PB (converted)
[4] = Protein binding in human serum at 1 to 1000 ug/mL by scintillation counting; format: ADME, cell-free; conditions: read-out: PB (converted)

Q: For CCCCCOc1ccc(-c2ccc(-c3ccc(C(=O)N[C@H]4C[C@@H](O)[C@@H](O)NC(=O)[C@@H]5[C@@H](O)[C@@H](C)CN5C(=O)[C@H]([C@@H](C)O)NC(=O)[C@H]([C@H](O)[C@@H](O)c5ccc(O)cc5)NC(=O)[C@@H]5C[C@@H](O)CN5C(=O)[C@H]([C@@H](C)O)NC4=O)cc3)cc2)cc1 [ANIDULAFUNGIN] ({pTerphenylCO(4''-OnC5H11)}-[Orn(4R-OH,5R-OH)]T[Hyp][hTyr(3S-OH,4S-OH)]T[Pro(3S-OH,4S-Me)]; lactam 1-C), which Ratio (Candida albicans [1]) is on record?
A: Its Ratio is 16.

Q: And the MIC50 (Pichia kudriavzevii)?
A: The MIC50 was 0.125 µg/mL.

Q: And the Ratio (Aspergillus fumigatus)?
A: Its Ratio is 64000.

Q: And the MIC50 (Nakaseomyces glabratus)?
A: Its MIC50 is 0.0313 µg/mL.

Q: And the MIC50 (Candida tropicalis)?
A: Its MIC50 is 1 µg/mL.

Q: And the MIC50 (Aspergillus flavus)?
A: Its MIC50 is 4 µg/mL.

Q: And the Ratio (Candida albicans [2])?
A: The Ratio was 256.

Q: For CCCCCOc1ccc(-c2cc(-c3ccc(C(=O)N[C@H]4C[C@@H](O)[C@@H](O)NC(=O)[C@@H]5[C@@H](O)[C@@H](C)CN5C(=O)[C@H]([C@H](O)CC(N)=O)NC(=O)[C@H]([C@H](O)[C@@H](O)c5ccc(O)c(OS(=O)(=O)O)c5)NC(=O)[C@@H]5C[C@@H](O)CN5C(=O)[C@H]([C@@H](C)O)NC4=O)cc3)no2)cc1 [MICAFUNGIN] (X1-[Orn(4R-OH,5R-OH)]T[Hyp][hTyr(3S-OH,4S-OH,3'-OSO3H)][Gln(3R-OH)][Pro(3S-OH,4S-Me)]; lactam 1-C), which Ratio (Candida albicans [1]) is on record?
A: Its Ratio is 64.

Q: What about the MIC50 (Pichia kudriavzevii) of the same molecule?
A: Its MIC50 is 0.0625 µg/mL.

Q: What about the Ratio (Aspergillus fumigatus) of the same molecule?
A: Its Ratio is 1024.

Q: What about the MIC50 (Nakaseomyces glabratus) of the same molecule?
A: The MIC50 was 0.0156 µg/mL.

Q: And the MIC50 (Candida tropicalis)?
A: Its MIC50 is 0.25 µg/mL.

Q: And the MIC50 (Aspergillus flavus)?
A: Its MIC50 is 0.125 µg/mL.

Q: And the Ratio (Candida albicans [2])?
A: Its Ratio is 128.

Q: What does the source list for CC[C@H](C)C[C@H](C)CCCCCCCCC(=O)N[C@H]1C[C@@H](O)[C@@H](NCCN)NC(=O)[C@@H]2[C@@H](O)CCN2C(=O)[C@H]([C@H](O)CCN)NC(=O)[C@H]([C@H](O)[C@@H](O)c2ccc(O)cc2)NC(=O)[C@@H]2C[C@@H](O)CN2C(=O)[C@H]([C@@H](C)O)NC1=O [CASPOFUNGIN]?
A: Ratio (Candida albicans [1]): 1; fraction unbound [3]: 0.04; MIC50 (Pichia kudriavzevii): 0.5 µg/mL; Ratio (Aspergillus fumigatus): 128; MIC50 (Nakaseomyces glabratus): 0.5 µg/mL; fraction unbound [4]: 0.04; MIC50 (Candida tropicalis): 0.5 µg/mL; MIC50 (Aspergillus flavus): 32 µg/mL; Ratio (Candida albicans [2]): 8
